For 18 molecules, EC50 results are on record in US9233964B2, “Sulfamide piperazine derivatives as protein tyrosine kinase inhibitors and pharmaceutical use therof” (LEO PHARMA A/S, priority 2011, dated 2016).

Holding throughout (format): biochemical
The target in assay [1] is T1, JAK1 (Homo sapiens, UniProt P23458).
T1 construct: JAK1 (aa 850-1154) and TYK2 (aa 871-1187) are expressed with an N-terminally fused GST-tag; GST (N); purchased Carna Biosciences, Inc; host or cells: baculovirus expression system
T1 sequence (P23458 850-1154): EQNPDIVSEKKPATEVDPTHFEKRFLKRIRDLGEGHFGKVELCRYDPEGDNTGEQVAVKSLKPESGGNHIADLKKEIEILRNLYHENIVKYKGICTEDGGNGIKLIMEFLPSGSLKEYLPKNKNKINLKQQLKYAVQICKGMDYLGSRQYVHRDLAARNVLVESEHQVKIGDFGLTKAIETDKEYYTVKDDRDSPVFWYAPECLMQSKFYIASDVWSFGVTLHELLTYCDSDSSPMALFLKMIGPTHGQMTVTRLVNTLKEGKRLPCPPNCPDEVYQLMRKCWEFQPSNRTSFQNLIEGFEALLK
Nature of the assay: JAK kinase assay (HTRF, phosphorylation of synthetic peptide), JAK1. As to conditions: catalytic domain, ATP at Km (7 μM); read-out: JAK1 kinase inhibitory activity (EC50). The procedure: (§1) Human baculovirus-expressed JAK1, 2, 3 and TYK2 were purchased from Carna Biosciences, Inc. All four purified enzymes contain only the catalytic domain. JAK1 (aa 850-1154) and TYK2 (aa 871-1187) are expressed with an N-terminally fused GST-tag, and JAK2 and JAK3 with an N-terminally fused His-tag.
(§2) Inhibition of phosphorylation of a synthetic peptide was measured in an HTRF-based assay using the TK substrate-Biotin from the Cisbio HTRFKinEASE TK kit. First, 2 μl of TK solution (TK substrate-biotin in kinase buffer [1× enzymatic buffer from HTRFKinEASE TK kit, 1 mM DTT]) is added to a plate containing 1 μl prediluted compound (final assay concentration DMSO: 0.75%). Then, 5 μl kinase-ATP mix (prepared in kinase buffer) is added to the wells and the plates are incubated at RT for 20-30 min. For all four kinases a concentration of ATP that corresponded to the Km for ATP was used. The final concentrations of buffers, substrate, kinase and ATP were: JAK1: 50 mM Hepes buffer pH 7.0, 0.01% BSA, 10 mM MgCl2, 1 mM DTT, 7 μM ATP, 50 nM SEB, 1 μM TK Substrate-Biotin and 5 ng JAK1; JAK2: 50 mM Hepes buffer pH 7.0, 0.01% BSA, 5 mM MgCl2, 1 mM DTT, 4 μM ATP, 1 μM TK Substrate-Biotin and 0.1 ng JAK2; JAK3: 50 mM Hepes buffer pH 7.0, 0.01% BSA, 5 mM MgCl2, 1 mM DTT, 2 μM ATP, 1 μM TK Substrate-Biotin and 0.3 ng JAK3; TYK2: 50 mM Hepes buffer pH 7.0, 0.01% BSA, 5 mM MgCl2, 1 mM DTT, 13 μM ATP, 50 nM SEB, 1 μM TK Substrate-Biotin and 0.8 ng TYK2. Thereafter, the kinase reaction is stopped by adding 4 μl detection mix (final concentrations: 50 mM Hepes buffer pH 7.0, 0.01% BSA, 0.8 M KF, 20 mM EDTA, 42 nM Streptavidin-XL665 and 1:400 STK Ab Cryptate) and the plates are incubated overnight in the dark. The HTRF signal is read using an Envision plate reader.

In assay [2] the target is T2, JAK2 (Homo sapiens, UniProt O60674).
T2 construct: All four purified enzymes contain only the catalytic domain; His (N); purchased Carna Biosciences, Inc; host or cells: baculovirus expression system
T2 sequence (O60674 849-1124 limits assumed): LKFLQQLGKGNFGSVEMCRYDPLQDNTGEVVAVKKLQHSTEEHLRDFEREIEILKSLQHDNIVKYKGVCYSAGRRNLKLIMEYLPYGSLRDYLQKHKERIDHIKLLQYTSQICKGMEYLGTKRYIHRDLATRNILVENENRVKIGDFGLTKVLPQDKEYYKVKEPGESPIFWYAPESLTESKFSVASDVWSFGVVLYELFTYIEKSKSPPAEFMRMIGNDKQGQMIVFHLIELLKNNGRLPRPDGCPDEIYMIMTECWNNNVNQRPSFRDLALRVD
Description: JAK kinase assay (HTRF, phosphorylation of synthetic peptide), JAK2. As to conditions: catalytic domain, ATP at Km (4 μM); read-out: JAK2 kinase inhibitory activity (EC50). The procedure: as §1, §2
For orientation: Time-resolved FRET reads energy transfer from a long-lived donor to a nearby acceptor.

The target in assay [3] is T3, JAK3 (Homo sapiens, UniProt P52333).
T3 construct: All four purified enzymes contain only the catalytic domain; His (N); purchased Carna Biosciences, Inc; host or cells: baculovirus expression system
T3 sequence (P52333 822-1111 limits assumed): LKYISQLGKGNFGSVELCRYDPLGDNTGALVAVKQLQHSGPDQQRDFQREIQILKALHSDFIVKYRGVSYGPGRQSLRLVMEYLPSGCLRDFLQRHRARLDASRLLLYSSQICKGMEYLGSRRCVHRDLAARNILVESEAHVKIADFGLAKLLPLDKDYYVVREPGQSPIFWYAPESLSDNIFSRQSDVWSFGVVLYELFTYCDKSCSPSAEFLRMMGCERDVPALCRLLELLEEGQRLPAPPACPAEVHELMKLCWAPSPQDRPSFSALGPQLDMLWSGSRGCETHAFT
Nature of the assay: JAK kinase assay (HTRF, phosphorylation of synthetic peptide), JAK3. As to conditions: catalytic domain, ATP at Km (2 μM); read-out: JAK3 kinase inhibitory activity (EC50). The procedure: as §1, §2

For assay [4], the target named is T4, TYK2 (Homo sapiens, UniProt P29597).
T4 construct: JAK1 (aa 850-1154) and TYK2 (aa 871-1187) are expressed with an N-terminally fused GST-tag; GST (N); purchased Carna Biosciences, Inc; host or cells: baculovirus expression system
T4 sequence (P29597 871-1187): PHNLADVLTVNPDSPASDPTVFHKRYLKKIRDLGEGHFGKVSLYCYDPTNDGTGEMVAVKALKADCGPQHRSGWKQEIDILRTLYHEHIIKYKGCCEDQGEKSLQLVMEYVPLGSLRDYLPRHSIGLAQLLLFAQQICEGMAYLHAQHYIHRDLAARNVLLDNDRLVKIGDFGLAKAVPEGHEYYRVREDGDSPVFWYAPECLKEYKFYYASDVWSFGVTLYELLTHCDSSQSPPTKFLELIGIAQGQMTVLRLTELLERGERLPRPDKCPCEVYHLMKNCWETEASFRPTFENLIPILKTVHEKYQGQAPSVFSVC
Nature of the assay: JAK kinase assay (HTRF, phosphorylation of synthetic peptide), TYK2. Conditions: catalytic domain, ATP at Km (13 μM); read-out: TYK2 kinase inhibitory activity (EC50). The procedure:
as §1, §2

Some results are limits rather than exact numbers.

The EC50 is the concentration giving half of the maximal effect. For the molecule `O=S(=O)(N(CCc1ccccc1)CC1CC1)N1CCN(c2ncnc3[nH]ccc23)CC12CC2` [Example 2, 7-(7H-Pyrrolo[2,3-d]pyrimidin-4-yl)-4,7-diaza-spiro[2.5]octane-4-sulfonic acid cyclopropylmethyl-phenethyl-amide], the EC50 in assay [1] was under 100 nM; in assay [2] it was under 100 nM; in assay [3], 100 to 500 nM; in assay [4], over 500 nM.

With `O=S(=O)(N(CCc1ccccc1)CC1CCC1)N1CCN(c2ncnc3[nH]ccc23)CC12CC2` [Example 3, 7-(7H-Pyrrolo[2,3-d]pyrimidin-4-yl)-4,7-diaza-spiro[2.5]octane-4-sulfonic acid cyclobutyl methyl-phenethyl-amide], the EC50 was 100 to 500 nM in assay [1], under 100 nM in assay [2], 100 to 500 nM in assay [3] and over 500 nM in assay [4].

`CCC(=O)CN(CCc1ccccc1)S(=O)(=O)N1CCN(c2ncnc3[nH]ccc23)CC12CC2` [Example 4, 7-(7H-Pyrrolo[2,3-d]pyrimidin-4-yl)-4,7-diaza-spiro[2.5]octane-4-sulfonic acid (2-oxo-butyl)-phenethyl-amide]: the EC50 is under 100 nM in assay [1], under 100 nM in assay [2], 100 to 500 nM in assay [3] and over 500 nM in assay [4].

Take `O=S(=O)(N(CCCO)CCc1ccccc1)N1CCN(c2ncnc3[nH]ccc23)CC12CC2` [Example 5, 7-(7H-Pyrrolo[2,3-d]pyrimidin-4-yl)-4,7-diaza-spiro[2.5]octane-4-sulfonic acid (3-hydroxy-propyl)-phenethyl-amide]: the EC50 in assay [1] is under 100 nM; in assay [2], under 100 nM; in assay [3], under 100 nM; in assay [4], 100 to 500 nM.

For the molecule `CC(C)CN(CCc1ccccc1)S(=O)(=O)N1CCN(c2ncnc3[nH]ccc23)CC12CC2` [Example 6, 7-(7H-Pyrrolo[2,3-d]pyrimidin-4-yl)-4,7-diaza-spiro[2.5]octane-4-sulfonic acid isobutyl-phenethyl-amide], the EC50 in assay [1] is 100 to 500 nM; in assay [2], under 100 nM; in assay [3] it was 100 to 500 nM; in assay [4] it was over 500 nM.

Take `CCCN(CCc1ccccc1)S(=O)(=O)N1CCN(c2ncnc3[nH]ccc23)CC12CC2` [Example 7, 7-(7H-Pyrrolo[2,3-d]pyrimidin-4-yl)-4,7-diaza-spiro[2.5]octane-4-sulfonic acid phenethyl-propyl-amide]: the EC50 in assay [1] is under 100 nM; in assay [2], under 100 nM; in assay [3], 100 to 500 nM; in assay [4] it was over 500 nM.

As to `O=S(=O)(N(CCc1ccccc1)CC1CCCCC1)N1CCN(c2ncnc3[nH]ccc23)CC12CC2` [Example 8, 7-(7H-Pyrrolo[2,3-d]pyrimidin-4-yl)-4,7-diaza-spiro[2.5]octane-4-sulfonic acid cyclohexylmethyl-phenethyl-amide], the EC50 in assay [1], in assay [2], in assay [3] and in assay [4] was over 500 nM each time.

`O=S(=O)(N(CCCc1ccccc1)CCc1ccccc1)N1CCN(c2ncnc3[nH]ccc23)CC12CC2` [Example 9, 7-(7H-Pyrrolo[2,3-d]pyrimidin-4-yl)-4,7-diaza-spiro[2.5]octane-4-sulfonic acid phenethyl-(3-phenyl-propyl)-amide]: the EC50 in assay [1] was over 500 nM; in assay [2], 100 to 500 nM; in assay [3] it was over 500 nM; in assay [4], over 500 nM.

As for `CN(CCCc1ccccc1)S(=O)(=O)N1CCN(c2ncnc3[nH]ccc23)CC12CC2` [Example 10, 7-(7H-Pyrrolo[2,3-d]pyrimidin-4-yl)-4,7-diaza-spiro[2.5]octane-4-sulfonic acid methyl-(3-phenyl-propyl)-amide], the EC50 in assay [1] is under 100 nM; in assay [2], under 100 nM; in assay [3], 100 to 500 nM; in assay [4] it was over 500 nM.

With `CN(CCC1CCCCC1)S(=O)(=O)N1CCN(c2ncnc3[nH]ccc23)CC12CC2` [Example 11, 7-(7H-Pyrrolo[2,3-d]pyrimidin-4-yl)-4,7-diaza-spiro[2.5]octane-4-sulfonic acid (2-cyclohexyl-ethyl)-methyl-amide], the EC50 in assay [1] was under 100 nM; in assay [2], under 100 nM; in assay [3], 100 to 500 nM; in assay [4], over 500 nM.

As for `CN(CC(=O)c1ccccc1)S(=O)(=O)N1CCN(c2ncnc3[nH]ccc23)CC12CC2` [Example 12, 7-(7H-Pyrrolo[2,3-d]pyrimidin-4-yl)-4,7-diaza-spiro[2.5]octane-4-sulfonic acid methyl-(2-oxo-2-phenyl-ethyl)-amide], the EC50 in assay [1] was under 100 nM; in assay [2] it was under 100 nM; in assay [3], 100 to 500 nM; in assay [4] it was over 500 nM.

As for `CN(Cc1cccc(C#N)c1)S(=O)(=O)N1CCN(c2ncnc3[nH]ccc23)CC12CC2` [Example 13, 7-(7H-Pyrrolo[2,3-d]pyrimidin-4-yl)-4,7-diaza-spiro[2.5]octane-4-sulfonic acid (3-cyano-benzyl)-methyl-amide], the EC50 is under 100 nM in assay [1], under 100 nM in assay [2], under 100 nM in assay [3] and 100 to 500 nM in assay [4].

On to `CN(Cc1ccccc1C#N)S(=O)(=O)N1CCN(c2ncnc3[nH]ccc23)CC12CC2` [Example 14, 7-(7H-Pyrrolo[2,3-d]pyrimidin-4-yl)-4,7-diaza-spiro[2.5]octane-4-sulfonic acid (2-cyano-benzyl)-methyl-amide], for which the concentration for a half-maximal effect (EC50) is under 100 nM in assay [1], under 100 nM in assay [2], 100 to 500 nM in assay [3] and under 100 nM in assay [4].

In the case of `N#CCCCCN(CCc1ccccc1)S(=O)(=O)N1CCN(c2ncnc3[nH]ccc23)CC12CC2` [Example 20, 7-(7H-Pyrrolo[2,3-d]pyrimidin-4-yl)-4,7-diaza-spiro[2.5]octane-4-sulfonic acid (4-cyano-butyl)-phenethyl-amide], the EC50 in assay [1], in assay [2] and in assay [3] was under 100 nM in each case.

Take `N#CCCCN(CCc1ccccc1)S(=O)(=O)N1CCN(c2ncnc3[nH]ccc23)CC12CC2` [Example 33, 7-(7H-Pyrrolo[2,3-d]pyrimidin-4-yl)-4,7-diaza-spiro[2.5]octane-4-sulfonic acid (3-cyano-propyl)-phenethyl-amide]: the EC50 in assay [1], in assay [2] and in assay [3] was under 100 nM in each case.

Regarding `N#CCCN(C1CC1)S(=O)(=O)N1CCN(c2ncnc3[nH]ccc23)CC12CC2` [Example 41, 7-(7H-Pyrrolo[2,3-d]pyrimidin-4-yl)-4,7-diaza-spiro[2.5]octane-4-sulfonic acid (2-cyano-ethyl)-cyclopropyl-amide], the EC50 in assay [1], in assay [2] and in assay [3] was under 100 nM throughout.

Turning to `O=S(=O)(NCCO)N1CCN(c2ncnc3[nH]ccc23)CC12CC2` [Example 53, 7-(7H-Pyrrolo[2,3-d]pyrimidin-4-yl)-4,7-diaza-spiro[2.5]octane-4-sulfonic acid (2-hydroxy-ethyl)-amide], the EC50 in assay [1], in assay [2] and in assay [3] was under 100 nM in each case.

Regarding `CN(Cc1ccc(C(F)(F)F)cc1)S(=O)(=O)N1CCN(c2ncnc3[nH]ccc23)CC12CC2` [Example 81, N-methyl-5-(7H-pyrrolo[2,3-d]pyrimidin-4-yl)-N-[[4-(trifluoromethyl)phenyl]methyl]-5,8-diazaspiro[2.5]octane-8-sulfonamide], the EC50 is under 100 nM in assay [1], under 100 nM in assay [2] and over 500 nM in assay [4].
